The text below walks through data of ChEMBL document CHEMBL3046570, “Synthesis, structure characterization, and biological evaluation of some new 1,2,3-benzotriazole derivatives” (2010).

Test [1] concerns 4T1. The test is described as follows: Cytotoxicity against Mus musculus (mouse) 4T1 cells assessed as decrease in cell viability at 0.2 mM by MTT assay. Format: functional, cell-based. Conditions: TDE = time-dependent effect. (Formazan colour is commonly taken as a measure of viable cells.)
In the next test the test system is Mycosphaerella arachidis. The experiment in a line: Fungicidal activity against Mycosphaerella arachidis assessed as inhibition of mycelium formation at 50 ug/ml after 72 hr (reference value: 0.005%). Format: functional.
Test [2] deals with 4T1. The test is described as follows: Cytotoxicity against Mus musculus (mouse) 4T1 cells assessed as cell survival at 0.2 mM after 24 hr by MTT assay relative to control. Conditions: 4T1, 24 h, read-out: Survival. The format is functional.
Test [3] concerns 4T1. The experiment in a line: Cytotoxicity against Mus musculus (mouse) 4T1 cells assessed as cell survival at 0.2 mM after 72 hr by MTT assay relative to control. Format: functional. Conditions: 4T1, 72 h, read-out: Survival.
Test [4] concerns 4T1. The experiment in a line: Cytotoxicity against Mus musculus (mouse) 4T1 cells assessed as cell survival at 0.2 mM after 48 hr by MTT assay relative to control. The format is functional. Conditions: 4T1, 48 h, read-out: Survival.
In test [5] the test system is 4T1. The test is described as follows: Cytotoxicity against Mus musculus (mouse) 4T1 cells assessed as decrease in cell viability after 24 to 72 hr by MTT assay. The format is functional, cell-based.
A further test is filed under the species Homo sapiens. The experiment in a line: Cytotoxicity against Homo sapiens (human) HEP7402 cells assessed as decrease in cell viability at 0.05 to 0.2 mM after 24 to 72 hr by MTT assay. The format is functional, cell-based.

Active and inactive are the calls of the source. The calls are words filed in the database; no cut-off is given here.

What is called inhibition is the relative decrease from the control value, in per cent.

On to `O=C(OC(Cn1nnc2ccccc21)C(=O)c1ccc(Cl)cc1)c1cccnc1` (stereo unspecified), for which the Activity result in the test on 4T1 [1] was “tde”; in the test on 4T1 [5], “Dose-dependent effect”. For the same molecule, the inhibition at 50 µg/mL with Mycosphaerella arachidis amounted to 18.8%. For the same molecule, the viability at 200 µM was 52.2% in the test on 4T1 [2], 40.3% in the test with 4T1 [3] and 45% in the test with 4T1 [4].
As to `O=C(OC(Cn1nnc2ccccc21)C(=O)c1ccc(Cl)cc1Cl)c1cccnc1` (stereo unspecified), in the test with Mycosphaerella arachidis, the inhibition at 50 µg/mL was found to be 31.3%.
As for `Cc1ccc(C(=O)C(Cn2nnc3ccccc32)OC(=O)c2cccnc2)cc1` (stereo unspecified), the inhibition at 50 µg/mL with Mycosphaerella arachidis worked out at 0%. In addition, the result in the test filed under Homo sapiens was Active.
As to `O=C(OC(Cn1nnc2ccccc21)C(=O)c1ccccc1)c1cccnc1` (stereo unspecified), the inhibition at 50 µg/mL with Mycosphaerella arachidis was determined as 15%.
Same read-out and setting: the result for `O=C(OC(Cn1nnc2ccccc21)C(=O)c1ccccc1)c1ccncc1` (stereo unspecified) reads 13%.
